# Measured values published in publication PMC10887214 (Biomedicines, 2024).
# How the values were obtained:
# [1] = target: α7-nAChR (Homo sapiens, UniProt P36544)
# [2] = target: H4R (Homo sapiens, UniProt Q9H3N8)
# [3] = target: MRGPRX2 (Homo sapiens, UniProt Q96LB1)
# [4] = target: KV7.1 (Homo sapiens, UniProt P51787)
# [5] = target: 5-HT4aR (Mus musculus, UniProt P97288)
# [6] = system: C57BL/6J mice; test: Open Field (OF); format: in vivo, mouse; conditions: i.p.
# Procedure: (§1) Animal housing. Forty-eight Male C57BL/6J mice were purchased from Janvier Labs (Le Genest-Saint-Isle, France) and were time-specifically housed in a 12 h light-dark cycle (lights on at 7 am), with ad libitum water and food in conditioned rooms (22 °C, humidity ~60%).
# (§2) Behavior assays. All mice were subjected to a behavioral test battery that consisted of several general performance tasks of locomotor activity, exploratory and anxiety-like behavior, and learning and memory. Mice were divided into four groups: Vehicle, OS (2 mg/kg), WIN55 (0.5 mg/kg), or OS + WIN. Each group consisted of 7–14 mice that received two i.p injections before each test, with a 10 min interval between each injection. Veh + Veh were injected with PBS. Veh + WIN were injected with PBS and WIN55. Veh + OS were injected with PBS and OS. OS + WIN were injected with OS and WIN55. PBS was used as vehicle as it was used for dilution of drugs. Tests were performed in the order described below after 10 min of the last injection, with a 24 h interval between each test.
# Open Field (OF): One day after the cage activity test, mice were tested in the OF paradigm. The OF aimed to test the OS, WIN, and OS + WIN effect on animal locomotion and exploratory behavior. Animals were placed in the test room one hour before starting the test. For the OF, animals were placed in a plexiglass box (60 × 60 × 60 cm) divided into three zones (center, periphery, and corners) for 10 min and left free to explore. Total distance and time in zones were counted. Here, more time in the center meant an anxiolytic effect, and a higher distance walking meant an increase in locomotor activity. For this test, we used Veh (n = 8), OS (n = 10), WIN (n = 7), OS + WIN (n = 8).
# [7] = system: C57BL/6J mice; test: Morris Water Maze (MWM); format: in vivo, mouse; conditions: i.p., OS 2 mg/kg
# Procedure: as §1, §2
# Morris Water Maze (MWM): MWM [32] was used to assess the effects of OS, WIN, and OS + WIN in memory one day after the EPM test. MWM is a gold standard test to assess learning and memory consisting of 10 days of training and two probe trials in a pool with water at a temperature of 26 °C, with one submersed platform invisible to mice. Each mouse could try to find the platform for 100 s, four times per day, with an inter-trial interval of 15–30 min. In each trial, animals were released randomly from each of the four starting positions. This protocol of training was repeated for ten days (training sessions). The platform was removed on the 6th and 11th days, and the animals were left free to swim for 100 s (probe trials). Right after the first probe trial (day 6), animals were trained again with the platform at the same place. During the training sessions, the mean latency to find the platform for the session was calculated for each animal as the average of the four trials of the day. During the probe trials, the pool was divided into four equal virtual quadrants, and the time spent in the target quadrant (TQ) (i.e., the quadrant where the platform was located during the training sessions) was assessed as a measure of memory retention. For this test, we used Veh (n = 9), OS (n = 8), WIN (n = 8), OS + WIN (n = 14).
# [8] = target: T1, GIRK1/GIRK2 channels (Mus musculus, UniProt P48542+P63250); test: Two-electrode voltage-clamp, GIRK1/GIRK2 channels expressed in oocytes; format: cell-based; conditions: 100 μM OS, HK
# T1 construct: expressed in transfected cells; host or cells: Xenopus laevis oocytes (cRNA injection)
# T1 sequence (P63250 1-501): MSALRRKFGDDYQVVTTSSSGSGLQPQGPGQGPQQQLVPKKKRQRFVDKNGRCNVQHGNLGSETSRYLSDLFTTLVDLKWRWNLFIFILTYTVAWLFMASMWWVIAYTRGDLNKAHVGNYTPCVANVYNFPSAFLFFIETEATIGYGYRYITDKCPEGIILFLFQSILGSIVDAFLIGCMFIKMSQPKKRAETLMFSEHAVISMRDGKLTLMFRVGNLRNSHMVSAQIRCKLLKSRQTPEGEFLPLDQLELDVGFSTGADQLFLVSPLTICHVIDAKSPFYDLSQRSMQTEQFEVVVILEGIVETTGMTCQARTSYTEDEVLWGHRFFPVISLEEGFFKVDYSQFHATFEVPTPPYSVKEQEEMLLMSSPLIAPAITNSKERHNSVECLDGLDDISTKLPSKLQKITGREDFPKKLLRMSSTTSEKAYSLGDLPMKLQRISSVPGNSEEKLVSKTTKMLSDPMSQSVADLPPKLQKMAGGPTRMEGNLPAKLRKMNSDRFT
# T1 sequence (P48542 1-425): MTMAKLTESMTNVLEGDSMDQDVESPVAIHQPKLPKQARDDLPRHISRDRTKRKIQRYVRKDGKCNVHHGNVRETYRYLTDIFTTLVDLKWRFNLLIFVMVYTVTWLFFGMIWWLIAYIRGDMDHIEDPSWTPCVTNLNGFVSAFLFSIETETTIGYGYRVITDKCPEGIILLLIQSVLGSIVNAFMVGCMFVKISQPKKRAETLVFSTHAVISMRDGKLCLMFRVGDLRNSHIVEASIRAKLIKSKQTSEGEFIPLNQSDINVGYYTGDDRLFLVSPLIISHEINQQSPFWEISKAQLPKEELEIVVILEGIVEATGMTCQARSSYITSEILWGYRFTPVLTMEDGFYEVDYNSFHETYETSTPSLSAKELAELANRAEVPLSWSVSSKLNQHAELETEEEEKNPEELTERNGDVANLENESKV
# Description: In vitro transcription of cDNA clones.
# Heterologous expression in Xenopus laevis oocytes.
# Electrophysiological measurements.
# [9] = target: T2, CB1 receptor (hCB1) (Homo sapiens, UniProt P21554); test: Two-electrode voltage-clamp, CB1-GIRK1/GIRK2-RGS4 coupling system expressed in Xenopus oocytes; format: cell-based
# T2 construct: expressed in transfected cells; host or cells: Xenopus laevis oocytes (cRNA injection)
# T2 sequence (P21554 whole entry): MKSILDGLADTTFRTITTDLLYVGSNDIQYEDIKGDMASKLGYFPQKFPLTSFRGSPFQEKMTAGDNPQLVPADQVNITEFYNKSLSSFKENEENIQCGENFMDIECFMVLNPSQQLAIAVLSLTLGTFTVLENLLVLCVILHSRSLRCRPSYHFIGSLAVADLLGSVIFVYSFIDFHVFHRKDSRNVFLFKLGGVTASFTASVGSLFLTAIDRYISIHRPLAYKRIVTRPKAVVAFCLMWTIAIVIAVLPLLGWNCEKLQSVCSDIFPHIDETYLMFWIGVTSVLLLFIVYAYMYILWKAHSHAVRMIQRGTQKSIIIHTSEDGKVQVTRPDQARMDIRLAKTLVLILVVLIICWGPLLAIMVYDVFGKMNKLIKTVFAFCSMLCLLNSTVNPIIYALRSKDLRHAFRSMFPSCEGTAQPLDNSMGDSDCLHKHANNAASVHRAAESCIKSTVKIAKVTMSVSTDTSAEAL
# Sequence of KV7.1 (P51787 whole entry): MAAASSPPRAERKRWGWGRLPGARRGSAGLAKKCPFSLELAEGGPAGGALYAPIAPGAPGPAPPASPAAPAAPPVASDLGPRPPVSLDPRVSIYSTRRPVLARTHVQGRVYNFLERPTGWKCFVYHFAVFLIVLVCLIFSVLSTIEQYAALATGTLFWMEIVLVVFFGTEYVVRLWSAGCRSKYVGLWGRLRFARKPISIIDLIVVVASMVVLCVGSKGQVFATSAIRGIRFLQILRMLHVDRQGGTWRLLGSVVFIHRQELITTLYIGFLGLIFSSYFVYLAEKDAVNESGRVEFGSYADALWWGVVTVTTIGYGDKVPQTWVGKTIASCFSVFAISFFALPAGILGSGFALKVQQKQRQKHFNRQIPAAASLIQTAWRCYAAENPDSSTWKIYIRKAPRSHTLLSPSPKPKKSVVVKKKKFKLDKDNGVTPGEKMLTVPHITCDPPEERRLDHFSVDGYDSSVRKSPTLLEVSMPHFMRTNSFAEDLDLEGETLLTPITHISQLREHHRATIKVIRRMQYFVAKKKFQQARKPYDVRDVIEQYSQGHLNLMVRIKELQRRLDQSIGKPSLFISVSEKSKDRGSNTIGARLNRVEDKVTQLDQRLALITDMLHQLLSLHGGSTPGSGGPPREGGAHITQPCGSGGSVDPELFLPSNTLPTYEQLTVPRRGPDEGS
# Sequence of 5-HT4aR (P97288 1-387 isoform P97288-2): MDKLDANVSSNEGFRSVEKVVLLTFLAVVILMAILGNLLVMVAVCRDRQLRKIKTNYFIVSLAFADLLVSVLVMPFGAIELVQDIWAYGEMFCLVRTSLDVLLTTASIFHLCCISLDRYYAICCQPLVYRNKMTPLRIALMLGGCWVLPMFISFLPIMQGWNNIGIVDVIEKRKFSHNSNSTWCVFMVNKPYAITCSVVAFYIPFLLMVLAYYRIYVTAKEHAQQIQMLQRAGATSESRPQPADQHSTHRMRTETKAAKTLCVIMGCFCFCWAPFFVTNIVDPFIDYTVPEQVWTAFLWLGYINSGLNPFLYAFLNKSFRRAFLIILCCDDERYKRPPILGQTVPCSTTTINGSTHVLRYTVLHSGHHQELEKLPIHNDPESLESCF
# Sequence of MRGPRX2 (Q96LB1 whole entry): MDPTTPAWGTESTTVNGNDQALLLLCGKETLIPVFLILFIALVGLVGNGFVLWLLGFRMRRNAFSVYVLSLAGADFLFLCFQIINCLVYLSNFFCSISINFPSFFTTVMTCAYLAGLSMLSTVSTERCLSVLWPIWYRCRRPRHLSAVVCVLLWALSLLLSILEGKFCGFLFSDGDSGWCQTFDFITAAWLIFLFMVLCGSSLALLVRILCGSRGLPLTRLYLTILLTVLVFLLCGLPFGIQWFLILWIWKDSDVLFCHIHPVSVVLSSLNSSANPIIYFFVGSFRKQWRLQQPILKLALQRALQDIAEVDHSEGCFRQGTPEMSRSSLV
# Sequence of H4R (Q9H3N8 whole entry): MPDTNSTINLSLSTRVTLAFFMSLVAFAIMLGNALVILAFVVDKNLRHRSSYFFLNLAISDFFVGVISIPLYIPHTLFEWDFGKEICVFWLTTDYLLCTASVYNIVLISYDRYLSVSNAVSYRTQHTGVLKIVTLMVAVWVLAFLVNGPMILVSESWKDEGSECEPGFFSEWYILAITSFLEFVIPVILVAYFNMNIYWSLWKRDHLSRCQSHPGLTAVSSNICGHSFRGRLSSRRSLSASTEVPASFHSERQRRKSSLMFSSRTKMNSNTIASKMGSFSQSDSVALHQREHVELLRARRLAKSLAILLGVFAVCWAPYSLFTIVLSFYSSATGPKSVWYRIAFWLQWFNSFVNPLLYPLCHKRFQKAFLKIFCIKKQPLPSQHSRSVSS
# Sequence of α7-nAChR (P36544 23-502): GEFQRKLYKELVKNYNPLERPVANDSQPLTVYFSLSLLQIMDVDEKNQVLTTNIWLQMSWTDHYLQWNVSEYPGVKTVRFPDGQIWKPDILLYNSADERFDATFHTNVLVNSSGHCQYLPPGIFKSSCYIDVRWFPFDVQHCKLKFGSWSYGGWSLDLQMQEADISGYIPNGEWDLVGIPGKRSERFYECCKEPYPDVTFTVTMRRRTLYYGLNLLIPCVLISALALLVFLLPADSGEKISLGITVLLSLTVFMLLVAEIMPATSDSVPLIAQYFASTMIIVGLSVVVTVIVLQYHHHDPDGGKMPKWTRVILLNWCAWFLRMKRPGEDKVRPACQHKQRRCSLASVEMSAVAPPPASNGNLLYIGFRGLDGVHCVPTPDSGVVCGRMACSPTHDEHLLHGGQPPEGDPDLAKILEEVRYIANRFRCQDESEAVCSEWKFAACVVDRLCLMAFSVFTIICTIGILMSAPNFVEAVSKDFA
smiles,measurement,setting,value
"CCCCCCCC/C=C\CCCCCCCC(=O)NCCc1c[nH]c2ccc(O)cc12 [OS, oleoyl serotonin]",Activity in selectivity screening,[1],did not show significant activity
same,Activity in selectivity screening,[2],did not show significant activity
same,Activity in selectivity screening,[3],did not show significant activity
same,Activity in selectivity screening,[4],did not show significant activity
same,Activity in selectivity screening,[5],did not show significant activity
same,Effect of OS injection on the WIN-induced decrease of time in the periphery,[6]; OS 2 mg/kg before WIN 0.5 mg/kg,prevented this decrease
same,Total distance walked in open field (locomotion),"[6]; OS 2 mg/kg, WIN 0.5 mg/kg, 10 min test",neither OS nor WIN affected locomotion
same,Time spent in the center zone of open field,"[6]; OS 2 mg/kg, WIN 0.5 mg/kg, compared with Veh + WIN",spent more time than the WIN-only group
same,"Time spent in the target quadrant (TQ), first probe trial",[7]; 100 s trial,more than 25 s
same,Performance in first probe trial vs control (time in target quadrant),[7]; day 6,performed worse than the control
same,"Effect on IK,basal",[8],"did not significantly change IK,basal"
same,"Effect on WIN55,212-2-induced inward K+ currents (IK,WIN+OS)","[9]; 100 μM OS co-applied with 0.3 μM WIN55,212-2",inhibited
same,"Effect of OS alone on IK,basal","[9]; 100 μM OS, 20–30 s, in HK","did not change the response of IK,basal"
same,IC50,"[9]; IC50 of blocking CB1 receptor activated by WIN55,212-2, 0.03 μM WIN + OS",2.4 µM
same,IC50,"[9]; IC50 of blocking CB1 receptor activated by WIN55,212-2, 0.1 μM WIN + OS",6.5 µM
same,IC50,"[9]; IC50 of blocking CB1 receptor activated by WIN55,212-2, 0.3 μM WIN + OS",16.2 µM
same,IC50,"[9]; IC50 of blocking CB1 receptor activated by WIN55,212-2, 1 μM WIN + OS",34.1 µM
same,Mode of antagonism,"[9]; against WIN55,212-2",competitively blocked
